Measured values from patent publication EP3461480A1, “COMBINATION OF A DNA DAMAGE RESPONSE CELL CYCLE CHECKPOINT INHIBITORS AND BELINOSTAT FOR TREATING CANCER” (ONXEO, priority 2017, dated 2019).

Key:
Type in all cases: cell-based
[1] = system: triple negative breast cancer (TBNC) cell line MDA-MB-231; assay: XTT cell survival assay and CalcuSyn combination index, MDA-MB-231; details: Homo sapiens, monotherapy, XTT assay, dose at which 50% of the cells are viable
Protocol: (§1) Cell cultures were performed with the triple negative breast cancer (TBNC) cell line MDA-MB-231, the histiocytic lymphoma cell line U937 and the non-tumor mammary cell line MCF-10A. Cells were grown according to the supplier's instructions. Cell lines were maintained at 37°C in a humidified atmosphere at 5% CO2, except the MDA-MB-231 cell line which was maintained at 0% CO2.
(§2) In a first step, the characterization of the effect of drugs monotherapy on cell survival (tumour and non-tumour cells) was performed. MDA-MB-231 (5.10^3 cells/well), MCF-10A (5.10^3 cells/well) and U937 (2.10^4 cells/well) were seeded in 96 well-plates and incubated 24 hours at +37°C before addition of the drug at increasing concentrations for 4 to 7 days. Following drug exposure, cell survival was measured using the XTT assay (Sigma Aldrich). Briefly, the XTT solution was added directly to each well containing cell culture and the cells incubated for 4 to 24 hours at 37°C before reading the absorbance at 490 nm and 690 nm using a microplate reader (BMG Fluostar, Galaxy). Cell survival is calculated as the ratio of living treated cells to living mock-treated cells. The IC50 (which represents the dose at which 50% of the cells are viable) is calculated by a non-linear regression model using GraphPad Prism software (version 5.04) by plotting the percentage viability against the Log of the drug concentration on each cell line.
(§3) In a second step, analysis and quantification of the drug combination efficacy were performed. Cells were seeded in 96-well plates at the appropriate densities and treated with belinostat (PXD-101 - Spectrum) and/or ATR (ATRi - AZD6738, Selleckchem; VE-821, Selleckchem) simultaneously during 4 to 7days. Belinostat + ATRi combinations was performed at a constant ratio (from IC50/8 to IC50*8) as previously described (Chou TC, Talalay P. Adv Enzyme Regul. 1984;22:27-55 (Quantitative analysis of dose-effect relationships: the combined effects of multiple drugs or enzyme inhibitors). Cell survival was measured using the XTT assay (see above).
Combination efficacy is evaluated by "the combination index (CI)" which is determined using the CalcuSyn software tool based on the Chou Talalay method. A CI could be interpreted as follows: CI<1, =1, and >1 indicate synergism; additive effect and antagonism, respectively (CalculSyn manual, Biosoft, 2006). Note that we define synergism as a more than expected additive effect, and antagonism as a less than expected additive effect. […]
(§4) In a second step, analysis and quantification of the drug combination efficacy were performed. […] Cell survival is measured using the XTT assay (see above).
(§5) Combination efficacy is evaluated by "the combination index (CI)" which was determined using the CalcuSyn software tool based on the Chou Talalay method. […]

[2] = system: non-tumor mammary cell line MCF-10A; assay: XTT cell survival assay, non-tumor cells MCF-10A; details: same drug doses as MDA-MB-231, 7 days; for sensitivity of non-tumor cells: XTT survival
Protocol: Following drug exposure, cell survival was measured using the XTT assay (Sigma Aldrich). […] Following drug exposure, cell survival was measured using the XTT assay (Sigma Aldrich).

[3] = system: histiocytic lymphoma cell line U937; assay: XTT cell survival assay and CalcuSyn combination index, U937; details: Homo sapiens, U-937, monotherapy, XTT assay, dose at which 50% of the cells are viable
Protocol: as §1
as §2, with “The IC50 (which represents the dose at which 50% of the cells are viable) is calculated by a non-linear regression model using GraphPad Prism software (version 5.04) by plotting the percentage viability against the Log of the drug concentration on each cell line.” left out
as §3, with “Cells were seeded in 96-well plates at the appropriate densities and treated with belinostat (PXD-101 - Spectrum) and/or ATR (ATRi - AZD6738, Selleckchem; VE-821, Selleckchem) simultaneously during 4 to 7days.” left out
Combination efficacy is evaluated by "the combination index (CI)" which is determined using the CalcuSyn software tool based on the Chou Talalay method. […]
as §4, §5

Row | SMILES | IC50 [1] [nM] | sensitivity of non-tumor cells on adding belinostat ([2]; inhibitor plus belinostat) | sensitivity of non-tumor cells [2] | IC50 [3] [nM]
1 | C[C@@H]1COCCN1c1cc(C2([S@](C)(=N)=O)CC2)nc(-c2cc[nH]c3nccc2-3)n1 [AZD6738, 4-[4-[1-[[S(R)]-S-methylsulfonimidoyl]cyclopropyl]-6-[(3R)-3-methyl-4-morpholinyl]-2-pyrimidinyl]-1H-pyrrolo[2,3-b]pyridine] | 2500 | didn't increase | showed a sensitivity | 500
2 | O=C(/C=C/c1cccc(S(=O)(=O)Nc2ccccc2)c1)NO [Belinostat, (2E)-N-hydroxy-3-[3-(phenylsulfamoyl)phenyl]prop-2-enamide] | 250 | – | insensitive | 250
3 | Cc1cnc(NC(=O)Nc2cc(Br)c(C)cc2OC[C@@H]2CNCCO2)cn1 [LY2603618, 1-[5-bromo-4-methyl-2-[[(2S)-morpholin-2-yl]methoxy]phenyl]-3-(5-methylpyrazin-2-yl)urea] | 3200 | – | showed a sensitivity | 1100
4 | CS(=O)(=O)c1ccc(-c2cnc(N)c(C(=O)Nc3ccccc3)n2)cc1 [VE-821, 3-amino-6-(4-methylsulfonylphenyl)-N-phenylpyrazine-2-carboxamide] | 18000 | – | – | –
